According to the supplement of paper PMC10307832:

Assays:
Test in all cases: relative viability (nuclei count vs DMSO), 5 days (fraction); higher = more cells survive
Ispinesib + Tozasertib = compound: Cc1ccc(C(=O)N(CCCN)[C@@H](c2nc3cc(Cl)ccc3c(=O)n2Cc2ccccc2)C(C)C)cc1 [Ispinesib] + Cc1cc(Nc2cc(N3CCN(C)CC3)nc(Sc3ccc(NC(=O)C4CC4)cc3)n2)n[nH]1 [Tozasertib] (partner 0.1 µM)
How it was run: (§1)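 Lung cancer cell lines, seeded in 1536-well plates, were treated the following day by pin tool with a single drug or with five library-drug doses (not always all listed) in √10 steps on top of a fixed anchor-drug dose. Cells were fixed and nuclei stained in one step after 5 days, and nuclei were counted. Relative viability is the nuclei count for treated wells divided by that for vehicle wells, reported as medians of duplicate plates.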

Linsitinib + Navitoclax = compound: C[C@]1(O)C[C@@H](c2nc(-c3ccc4ccc(-c5ccccc5)nc4c3)c3c(N)nccn32)C1 [Linsitinib] + CC1(C)CCC(c2ccc(Cl)cc2)=C(CN2CCN(c3ccc(C(=O)NS(=O)(=O)c4ccc(N[C@H](CCN5CCOCC5)CSc5ccccc5)c(S(=O)(=O)C(F)(F)F)c4)cc3)CC2)C1 [Navitoclax] (partner 0.5 µM)
How it was run: as §1

Linsitinib + Bortezomib = compound: C[C@]1(O)C[C@@H](c2nc(-c3ccc4ccc(-c5ccccc5)nc4c3)c3c(N)nccn32)C1 [Linsitinib] + CC(C)C[C@H](NC(=O)[C@H](Cc1ccccc1)NC(=O)c1cnccn1)B(O)O [Bortezomib] (partner 0.002 µM)
How it was run: as §1

Linsitinib + Decitabine = compound: C[C@]1(O)C[C@@H](c2nc(-c3ccc4ccc(-c5ccccc5)nc4c3)c3c(N)nccn32)C1 [Linsitinib] + Nc1ncn([C@H]2C[C@H](O)[C@@H](CO)O2)c(=O)n1 [Decitabine] (partner 2 µM)
How it was run: as §1

Cell Line | relative viability (Ispinesib + Tozasertib; first compound 0.001 µM) | relative viability (Ispinesib + Tozasertib; first compound 0.003162 µM) | relative viability (Ispinesib + Tozasertib; first compound 0.01 µM) | relative viability (Ispinesib + Tozasertib; first compound 0.03162 µM) | relative viability (Ispinesib + Tozasertib; first compound 0.1 µM) | relative viability (Linsitinib + Navitoclax; first compound 0.01 µM) | relative viability (Linsitinib + Navitoclax; first compound 0.03162 µM) | relative viability (Linsitinib + Navitoclax; first compound 0.1 µM) | relative viability (Linsitinib + Navitoclax; first compound 0.3162 µM) | relative viability (Linsitinib + Navitoclax; first compound 1 µM) | relative viability (Linsitinib + Bortezomib; first compound 0.01 µM) | relative viability (Linsitinib + Bortezomib; first compound 0.03162 µM) | relative viability (Linsitinib + Bortezomib; first compound 0.1 µM) | relative viability (Linsitinib + Bortezomib; first compound 0.3162 µM) | relative viability (Linsitinib + Bortezomib; first compound 1 µM) | relative viability (Linsitinib + Decitabine; first compound 0.01 µM) | relative viability (Linsitinib + Decitabine; first compound 0.03162 µM) | relative viability (Linsitinib + Decitabine; first compound 0.1 µM) | relative viability (Linsitinib + Decitabine; first compound 1 µM) | relative viability (Linsitinib + Decitabine; first compound 0.3162 µM)
HARA | 0.151 | 0.115 | 0.332 | 0.0895 | 0.107 | 1.09 | 1.17 | 1.13 | 0.788 | 1.15 | 1.11 | 1.08 | 1.21 | 0.666 | 1.15 | 0.518 | 0.533 | 0.526 | 0.678 | –
IA-LM | – | – | – | – | – | 0.882 | 0.785 | 0.775 | 0.6 | 0.531 | 0.748 | 0.824 | 0.789 | 0.648 | 0.678 | – | – | – | – | –
LCLC-103H | 0.5 | 0.608 | 0.584 | 0.382 | 0.485 | – | – | – | – | – | 1.11 | 0.951 | 1.17 | 1.05 | 0.892 | 0.757 | 0.713 | 0.658 | 0.739 | 0.628
LK-2 | 0.159 | 0.175 | 0.183 | 0.158 | 0.158 | 0.875 | 0.829 | 0.759 | 0.575 | 0.531 | – | – | – | – | – | 0.221 | 0.407 | 0.232 | 0.185 | 0.187
NCI-H358 | 0.1 | 0.101 | 0.0892 | 0.116 | 0.0906 | – | – | – | – | – | – | – | – | – | – | 0.242 | 0.354 | 0.256 | 0.222 | 0.208
NCI-H522 | 0.562 | 0.508 | 0.542 | 0.557 | 0.702 | – | – | – | – | – | – | – | – | – | – | 0.657 | 0.773 | 0.614 | 0.587 | 0.688
NCI-H650 | 0.738 | 0.712 | 0.77 | 0.742 | 0.426 | – | – | – | – | – | 0.721 | 0.768 | 0.863 | – | 0.584 | 0.313 | 0.396 | 0.287 | 0.306 | –
NCI-H661 | 0.355 | 0.396 | 0.384 | 0.379 | 0.369 | – | – | – | – | – | 0.893 | 0.801 | 0.761 | 0.986 | 0.749 | 0.545 | 0.676 | 0.536 | 0.535 | 0.492
NCI-H1299 | – | – | – | – | – | 1.07 | 1.03 | 1.03 | 0.916 | 1.04 | 1.06 | 0.972 | 1.05 | 0.944 | 0.986 | – | – | – | – | –
NCI-H1395 | 0.778 | 0.874 | 0.808 | 0.58 | 0.404 | 1.14 | 0.904 | 1.47 | 1 | 1.15 | – | – | – | – | – | 0.691 | – | 0.777 | 0.702 | 0.695
NCI-H1563 | – | – | – | – | – | – | – | – | – | – | 0.835 | 0.86 | 0.87 | 0.719 | 0.827 | – | – | – | – | –
NCI-H1623 | 0.404 | 0.719 | 0.473 | 0.394 | 0.324 | – | – | – | – | – | – | – | – | – | – | – | – | – | – | –
NCI-H1648 | 0.532 | 0.484 | 0.394 | 0.498 | 0.44 | – | – | – | – | – | – | – | – | – | – | 0.468 | 0.445 | 0.428 | 0.46 | 0.377
NCI-H1703 | – | – | – | – | – | 0.894 | – | 1.43 | 0.924 | 0.932 | 0.416 | – | 0.317 | 0.288 | 0.314 | – | – | – | – | –
NCI-H1792 | – | – | – | – | – | 0.553 | 0.597 | 0.5 | 0.54 | 0.438 | 0.971 | 0.953 | 0.928 | 0.775 | 0.704 | 0.496 | 0.484 | 0.512 | 0.363 | 0.472
NCI-H1793 | 0.322 | 0.345 | 0.724 | 0.288 | 0.368 | 0.374 | 0.353 | 0.469 | 0.322 | 0.425 | – | – | – | – | – | 0.428 | 0.634 | 0.547 | 0.454 | 0.422
NCI-H1944 | 0.263 | 0.249 | 0.275 | 0.225 | 0.234 | 1.02 | 1.1 | 1.04 | 0.93 | 0.917 | – | – | – | – | – | 0.426 | 0.53 | 0.422 | 0.341 | 0.398
NCI-H2170 | 0.741 | 0.689 | 0.848 | 0.556 | 0.41 | 0.615 | 0.622 | 0.456 | 0.543 | 0.501 | – | – | – | – | – | 0.445 | 0.528 | 0.461 | 0.468 | –
NCI-H2228 | 0.299 | 0.28 | 0.236 | 0.152 | 0.365 | 0.81 | 1.09 | 0.941 | 0.787 | 0.791 | 1.05 | 0.89 | 0.787 | 0.72 | 0.765 | – | – | – | – | –
NCI-H2342 | 0.492 | 0.502 | 0.544 | 0.554 | 0.43 | – | – | – | – | – | – | – | – | – | – | 0.765 | 0.78 | 0.732 | 0.75 | 0.688
SK-MES-1 | 0.983 | 1.03 | 0.949 | 0.217 | 0.215 | 1.26 | 1.31 | 1.33 | 0.979 | 1.16 | – | – | – | – | – | 0.39 | 0.369 | 0.387 | 0.423 | 0.418
SW 900 | 0.502 | 0.595 | 0.606 | 0.409 | 0.293 | – | – | – | – | – | – | – | – | – | – | 0.474 | 0.537 | 0.466 | 0.388 | 0.374
